From US7648993B2, “Methods of treating disorders with Group I mGluR antagonists” (Brown University, priority 2001, dated 2010) come the findings set out here.

For test [1], the system named is hippocampal slices from mGluR5 knockout mice. The test is described as follows: DHPG-LTD of field potentials in hippocampal slices from mGluR5 knockout mice and wild-type littermates. The class given is cell-based. The method, then: (§1) All animals were used in accordance with procedures approved by the Brown University Institutional Animal Care and Use Committee. Hippocampal slices were prepared from postnatal day 21-30 (P21-30) Long Evans rats (Charles River, Cambridge, Mass.) and mGluR5 knockout mice (Lu et al. 1997) as described previously (Huber et al. 2000). For most experiments, CA3 was removed immediately after sectioning. Slices recovered for 1-2 h at room temperature (rats) or at 30° C. (mice) in artificial cerebrospinal fluid (ACSF) containing (in mM) 124 NaCl, 5 KCl, 1.25 NaH2PO4, 26 NaHCO3, 1 MgCl2, 2 CaCl2, and 10 dextrose, saturated with 95% O2-5% CO2. For recording, slices were placed in a submersion recording chamber and perfused with 30° C. ACSF at a rate of 2 ml/min.
Baseline responses were collected every 10-30 s using a stimulation intensity (10-30 μA; 0.2 ms) yielding 50-60% of the maximal response. Experiments in which there was a>5% drift in the response magnitude during the 20-min baseline period before DHPG or LFS were excluded from further analysis. All experiments with mGluR5 KO mice used wildtype littermates as controls and were performed blind to the genotype, later determined by Therion (Troy, N.Y.). LFS consisted of 900 pulses at 1 Hz. PP-LFS consisted of 900 pairs of stimuli (50-ms interstimulus interval) delivered at 1 Hz. […]
The group data were analyzed as follows: 1) the initial slopes of the FPs and excitatory postsynaptic potentials (EPSPs), or the amplitude of the excitatory postsynaptic currents (EPSCs), for each experiment were expressed as percentages of the preconditioning or DHPG baseline average, 2) the time scale in each experiment was converted to time from the onset of conditioning or DHPG, and 3) the time-matched, normalized data were averaged across experiments and expressed in the text and figures as the means ±SE. Significant differences between groups were determined using an independent t-test or ANOVA performed on a 5-min average taken 1 h after LFS or DHPG application.

For test [2], the system named is hippocampal slices from Fmr1-KO mice and wildtype littermates. Put plainly: DHPG-induced mGluR-LTD of field potentials in hippocampal slices of Fmr1-KO and WT mice. Type of test: cell-based, C57BL/6 congenic mice. As for the experimental part:
ACSF at a rate of 2 ml/min.
Fresh stocks were made once a week.

In test [3] the test system is cultured hippocampal neurons. The test is described as follows: Acid strip immunocytochemistry for internalized GluR1 (AMPARs). The class given is cell-based, rat.
Test [4] deals with hippocampal area CA1 slices. Put plainly: Sharp electrode EPSP and whole cell voltage-clamp EPSC recordings in hippocampal slices. The note with it: DHPG 50 μM, 5 min. The class given is cell-based, Long Evans rats. The method, then:
as §1
Synaptically evoked field potentials (FPs) were recorded from area CA1 as described previously. […]
The group data were analyzed as follows: 1) the initial slopes of the FPs and excitatory postsynaptic potentials (EPSPs), or the amplitude of the excitatory postsynaptic currents (EPSCs), for each experiment were expressed as percentages of the preconditioning or DHPG baseline average, 2) the time scale in each experiment was converted to time from the onset of conditioning or DHPG, and 3) the time-matched, normalized data were averaged across experiments and expressed in the text and figures as the means ±SE. […]

The test system of test [5] is cultured hippocampal neurons. The test is described as follows: Immunocytochemical localization of surface synaptic receptors (GluR2, GluR1, NR1, GABAAβ1). Type of test: cell-based, rat. The conditions noted are these: for GluR1-positive synapses: cycloheximide 60 μM applied 15 min before DHPG where named. The text has this:
We next determined if the DHPG-induced increase in internalized AMPARs is accompanied by a net decrease in surface-expressed receptor clusters at synapses. At various intervals after DHPG washout, cells were fixed and surface GluR2 or GluR1 was labeled with N-terminal antibodies without permeabilization. The cultures were then permeabilized, and synapses were labeled using an antibody against the presynaptic marker synapsin I or synaptophysin coupled to the appropriate secondary antibody. Under control conditions, most synapses were immunoreactive for AMPAR clusters (GluR2, 80.6±9.0%; n=10 cells, 200 synapses, FIGS. 5A-D; GluR1, 72.5±4.7%; n=15 cells, 225 synapses; FIGS. 5E and F).
Following experimental treatment, low-density cultures were fixed in 4% paraformaldehyde with 4% sucrose for 5 min. Cultures were rinsed in PBS and then blocked in PBS with 20% fetal bovine serum for 1 h. Cultures were stained with N-terminal receptor antibodies overnight at 4° C. (GluR2, 1:100, Chemicon, Ternecula, California; GluR1, 1:100, gift of R. Huganir; NR1, 1:500, Chemicon MAB363; GABAAβ1, 1:100 Santa Cruz Biologicals, Santa Cruz, Calif.). Cultures were then rinsed in blocking buffer containing 0.1% Triton-X for 20 min and exposed to antibodies directed against presynaptic proteins (synapsin 1, 1:1000, Chemicon; synaptophysin, 1:100, Boehringer Manheim, Irvine, Calif.) for 1 h at room temperature. Cultures were then rinsed and exposed to the appropriate fluorescent secondary antibodies (Jackson Immunoresearch, West Grove, Pa.).
Microscopy was performed with a Nikon E800 microscope using a 60×1.4 NA objective (Melville, N.Y.). Fluorescence images were collected with a Sensys cooled CCD camera and analyzed using IP-Labs software. Additional images were collected with a Olympus Flowview confocal microscope with a 60×1.2 NA objective. All analyses were performed blind to the stimulation history of the culture. Microscopic fields had 1-3 neurons displaying smooth soma and generally healthy morphology with multiple distinct processes. Immunofluorescence was analyzed along the proximal 50 μm of 3 or more dendrites per neuron. Immunoreactive puncta were defined as discrete points along the dendrite with fluorescence intensity twice the background staining of the neuron. Five cells were analyzed per culture and 3-6 cultures were analyzed per condition. Separate controls were performed with each experiment and a Student's t-test was used to determine statistical significance. Data are expressed as puncta per 10 μm of dendrite unless stated otherwise.

Where [6] appears, read: DHPG 100 μM, 5 min, in APV, 60 min after DHPG.

For `NC(C(=O)O)c1cc(O)cc(O)c1` (racemic) [DHPG, (RS)-3,5-dihydroxyphenylglycine], the “DHPG-LTD, FP % of baseline, mGluR5 heterozygous mutants” value in test [1] (1 h after DHPG, mGluR5 +/−) stood at 84±4%. In test [1] (1 h after DHPG, wild type), the “DHPG-LTD, FP % of baseline, wild-type littermate controls” value is listed as 77±2%. Moreover, the “DHPG-LTD, FP % of baseline, mGluR5 homozygous mutants” value in test [1] (measured 1 h after DHPG application, mGluR5 −/−) is recorded as 98±3%. Moreover, in test [2] (setting [6]), the “FP slope, % of pre-DHPG baseline, Fmr1-KO mice” value is 77±3%. The “FP slope, % of pre-DHPG baseline, WT mice” value in test [2] (setting [6]) turned out to be 88±4%. Also, the “maximal acute depression, % of pre-DHPG baseline values, KO” value in test [2] (DHPG, Fmr1-KO slices) stood at 26±5%. Moreover, in test [2] (DHPG, WT slices), the “maximal acute depression, % of pre-DHPG baseline values, WT” value worked out at 36±4%. Besides, the “internalized GluR1 puncta” value is listed as 1.44±0.17 puncta per 10 μm of dendrite in test [3] (DHPG 50 μM, 5 min, 15 minutes after treatment onset) and 1.14±0.15 puncta per 10 μm of dendrite in test [3] (DHPG 50 μM, 5 min, 1 hour). The “internalized GluR1 puncta, APV experiment” value in test [3] (DHPG 50 μM, 5 min, APV 50 μM) is recorded as 1.49±0.22 puncta per 10 μm of dendrite. Also, the “internalized GluR1 puncta, LY344545 experiment” value in test [3] (DHPG 50 μM, 5 min, LY344545 100 μM) is reported as 1.39±0.34 puncta per 10 μm of dendrite. In addition, the “internalized GluR1 puncta, cycloheximide experiment” value in test [3] (measured at 60 minutes, chx 60 μM applied 15 min before DHPG) is on record as 1.5±0.27 puncta per 10 μm of dendrite. Further, the “EPSP slope after DHPG (LTD), % of baseline” value in test [4] (sharp electrode recording) is 61±5%. In test [4] (whole cell voltage clamp at −70 mV), the “EPSC amplitude after DHPG (LTD), % of baseline” value worked out at 69±5%. Besides, the GluR1-positive synapses in test [5] (15 min after DHPG) is 29.3±5.4%; in test [5] (60 min after DHPG), 20.0±12.0%. For the same molecule, the NR1-positive synapses in test [5] (15 minutes after DHPG treatment) is 28±6%; in test [5] (60 minutes after DHPG treatment, with cycloheximide where named), 21±3%. In test [5] (1 h after DHPG), the “change in synapsin puncta density (in words)” value was “no change”. Also, the “synapsin-labeled puncta with GABAAβ1 clusters” value in test [5] (60 min after DHPG treatment) is recorded as 10.9±2%. Further, the “synapses with surface staining for GluR2” value in test [5] (1 hour after DHPG treatment) is reported as 40.8±11%.
